Laboratory results published in PubChem BioAssay (NCI).
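These data come from cells grown in 96-well plates and exposed to compound for 48 hours at five concentrations. At the TGI there is no net growth.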

Legend:
Test in all cases: DTP human tumour cell line panel, 48 h
[1] = test system: K-562 leukemia
[2] = test system: SK-MEL-2 melanoma
[3] = test system: HL-60(TB) leukemia
[4] = test system: OVCAR-5 ovarian
[5] = test system: EKVX NSCLC
[6] = test system: HOP-62 NSCLC
[7] = test system: MDA-MB-231 breast
[8] = test system: MDA-MB-435
[9] = test system: MCF7 breast
[10] = test system: DU-145 prostate
[11] = test system: BT-549 breast
[12] = test system: SK-MEL-5 melanoma
[13] = test system: ACHN renal
[14] = test system: HS 578T breast
[15] = test system: IGROV1 ovarian
[16] = test system: RXF 393 renal
[17] = test system: NCI/ADR-RES ovarian
[18] = test system: T-47D breast
[19] = test system: PC-3 prostate
[20] = test system: HCT-15 colon
[21] = test system: A549 NSCLC
[22] = test system: MDA-N
[23] = test system: SR leukemia
[24] = test system: HT29 colon
[25] = test system: TK-10 renal
[26] = test system: A498 renal
[27] = test system: SW-620 colon
[28] = test system: UO-31 renal
[29] = test system: HCC-2998 colon
[30] = test system: HOP-92 NSCLC
[31] = test system: OVCAR-8 ovarian
[32] = test system: NCI-H226 lung
[33] = test system: RPMI-8226 leukemia
[34] = test system: UACC-257 melanoma
[35] = test system: HCT-116 colon
[36] = test system: CCRF-CEM leukemia
[37] = test system: SK-MEL-28 melanoma
[38] = test system: MOLT-4 leukemia
[39] = test system: COLO 205 colon
[40] = test system: U251 CNS
[41] = test system: NCI-H23 lung
[42] = test system: 786-0 renal
[43] = test system: NCI-H460 lung
[44] = test system: SN12C renal
[45] = test system: SF-295 CNS
[46] = test system: SF-539 CNS
[47] = test system: OVCAR-3 ovarian
[48] = test system: LOX IMVI melanoma
[49] = test system: KM12 colon
[50] = test system: UACC-62 melanoma
[51] = test system: CAKI-1 renal
[52] = test system: SNB-75 CNS
[53] = test system: SNB-19 CNS
[54] = test system: SF-268 CNS
[55] = test system: M14 melanoma
[56] = test system: NCI-H522 lung
[57] = test system: OVCAR-4 ovarian
[58] = test system: SK-OV-3 ovarian

Compound: Cn1c(=O)c2c(nc3n(Cc4ccccc4)c(=O)c(Br)cn23)n(C)c1=O
- TGI [1]: > 100 µM
- TGI [2]: > 100 µM
- TGI [3]: > 100 µM
- TGI [4]: > 100 µM
- TGI [5]: > 100 µM
- TGI [6]: > 100 µM
- TGI [7]: > 100 µM
- TGI [8]: > 100 µM
- TGI [9]: > 100 µM
- TGI [10]: > 100 µM
- TGI [11]: > 100 µM
- TGI [12]: > 100 µM
- TGI [13]: > 100 µM
- TGI [14]: > 100 µM
- TGI [15]: > 100 µM
- TGI [16]: > 100 µM
- TGI [17]: > 100 µM
- TGI [18]: > 100 µM
- TGI [19]: > 100 µM
- TGI [20]: > 100 µM
- TGI [21]: > 100 µM
- TGI [22]: > 100 µM
- TGI [23]: > 100 µM
- TGI [24]: > 100 µM
- TGI [25]: > 100 µM
- TGI [26]: > 100 µM
- TGI [27]: > 100 µM
- TGI [28]: > 100 µM
- TGI [29]: > 100 µM
- TGI [30]: > 100 µM
- TGI [31]: > 100 µM
- TGI [32]: > 100 µM
- TGI [33]: > 100 µM
- TGI [34]: > 100 µM
- TGI [35]: > 100 µM
- TGI [36]: > 100 µM
- TGI [37]: > 100 µM
- TGI [38]: > 100 µM
- TGI [39]: > 100 µM
- TGI [40]: > 100 µM
- TGI [41]: > 100 µM
- TGI [42]: > 100 µM
- TGI [43]: > 100 µM
- TGI [44]: > 100 µM
- TGI [45]: > 100 µM
- TGI [46]: > 100 µM
- TGI [47]: > 100 µM
- TGI [48]: > 100 µM
- TGI [49]: > 100 µM
- TGI [50]: > 100 µM
- TGI [51]: > 100 µM
- TGI [52]: > 100 µM
- TGI [53]: > 100 µM
- TGI [54]: > 100 µM
- TGI [55]: > 100 µM
- TGI [56]: > 100 µM
- TGI [57]: > 100 µM

Compound: COC(=O)[C@]12CC[C@H]3CN(C(=O)OCc4ccccc4)[C@H]([C@H]31)[C@H](c1ccccc1)N2
- TGI [1]: > 100 µM
- TGI [2]: > 100 µM
- TGI [3]: > 100 µM
- TGI [4]: > 100 µM
- TGI [5]: > 100 µM
- TGI [6]: > 100 µM
- TGI [7]: > 100 µM
- TGI [8]: > 100 µM
- TGI [9]: > 100 µM
- TGI [10]: > 100 µM
- TGI [11]: > 100 µM
- TGI [12]: 58.3 µM
- TGI [13]: > 100 µM
- TGI [14]: > 100 µM
- TGI [15]: > 100 µM
- TGI [16]: > 100 µM
- TGI [17]: > 100 µM
- TGI [18]: > 100 µM
- TGI [19]: > 100 µM
- TGI [20]: > 100 µM
- TGI [21]: > 100 µM
- TGI [22]: > 100 µM
- TGI [23]: > 100 µM
- TGI [24]: > 100 µM
- TGI [25]: > 100 µM
- TGI [26]: > 100 µM
- TGI [27]: > 100 µM
- TGI [28]: > 100 µM
- TGI [29]: > 100 µM
- TGI [30]: > 100 µM
- TGI [31]: > 100 µM
- TGI [32]: > 100 µM
- TGI [33]: > 100 µM
- TGI [34]: > 100 µM
- TGI [35]: > 100 µM
- TGI [36]: > 100 µM
- TGI [37]: > 100 µM
- TGI [38]: > 100 µM
- TGI [39]: > 100 µM
- TGI [40]: > 100 µM
- TGI [41]: > 100 µM
- TGI [42]: > 100 µM
- TGI [43]: > 100 µM
- TGI [44]: > 100 µM
- TGI [45]: > 100 µM
- TGI [46]: > 100 µM
- TGI [47]: > 100 µM
- TGI [48]: > 100 µM
- TGI [49]: > 100 µM
- TGI [50]: > 100 µM
- TGI [51]: > 100 µM
- TGI [52]: > 100 µM
- TGI [58]: > 100 µM
- TGI [53]: > 100 µM
- TGI [54]: > 100 µM
- TGI [55]: > 100 µM
- TGI [56]: > 100 µM
- TGI [57]: > 100 µM
